Values of other authors as cited in US8431165B2, “Medicament for treatment of cancer and other diseases” (Swing Aerobics Licensing, Inc., priority 2004, dated 2013).

Conditions: adult men and women, mean+SD

CC/C=C\C/C=C\C/C=C\CCCCCCCC(=O)O [alpha-linolenic acid]
average estimated conversion of alpha-linolenic acid to docosahexaenoic acid: 3.6±3.8% | average estimated conversion of alpha-linolenic acid to n-3 LC-PUFA metabolites: 17.3±12.8%
